Experimental data from patent publication US9044403B2, “Sporicidal hand sanitizing lotion” (Medivators Inc., priority 2008, dated 2015).

Assay: Fragrance screen for chemical compatibility with a PAA solution
Format: physicochemical
Protocol: A number of fragrances were tested with a PAA solution to screen for chemical compatibility. […] Additionally, “Blackberry Sage Tea” fragrance in combination with the vinegar-like order from the PAA in the sample was not appealing to volunteers who agreed to sample the sample lotion formulation.

Time within which the fragrance degrades PAA [days]	Structure (SMILES)
3 to 5	CC/C=C\CCO [cis-3-hexen-1-ol]
3 to 5	CC(=O)OCCC(C)CCC=C(C)C (stereo not drawn) [citronellyl acetate]
3 to 5	CC(=O)OC/C=C(/C)CCC=C(C)C [neryl acetate]
